Test results: PubChem BioAssay AID328 (DTP/NCI, 2004)
Where “and” joins values, the source holds several entries; their conditions need not be identical. Equal entries are not always repeated. Inconclusive results and toxic doses are left out.

Tested on: BDF1 mice, P388 leukemia ip, median survival T/C
Assay: NCI In Vivo Anticancer Drug Screen. Data for tumor model P388 Leukemia (intraperitoneal) in B6D2F1 (BDF1) mice
Conditions: endpoint: median survival time, higher = longer survival
Summary of the method: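 Each value expresses how treatment altered survival: treated-mouse outcome over vehicle-mouse outcome, both groups bearing the transplanted tumour.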

[1] = dose: 50.0 mg/kg/injection, schedule: Q01DX009 (ip), vehicle: saline with Tween-80
[2] = dose: 100.0 mg/kg/injection, schedule: Q01DX009 (ip), vehicle: saline with Tween-80
[3] = dose: 100.0 mg/kg/injection, schedule: Q04DX003 (ip), vehicle: saline with Tween-80
[4] = dose: 200.0 mg/kg/injection, schedule: Q01DX009 (ip), vehicle: saline with Tween-80
[5] = dose: 200.0 mg/kg/injection, schedule: Q04DX003 (ip), vehicle: saline with Tween-80
[6] = dose: 10.0 mg/kg/injection, schedule: Q01DX009 (ip), vehicle: saline

For Cc1ccc(NO)c(C)c1, the T/C (dose: 50.0 mg/kg/injection, schedule: Q01DX005 (ip), vehicle: saline with Tween-80) was 113 % of control and the T/C (dose: 100.0 mg/kg/injection, schedule: Q01DX005 (ip), vehicle: saline with Tween-80) was 108 % of control.

For c1ccc2cc(-c3cc4ccccc4s3)ccc2c1, the T/C (dose: 50.0 mg/kg/injection, schedule: Q01DX010 (ip), vehicle: saline) was 95 % of control, the T/C (dose: 100.0 mg/kg/injection, schedule: Q01DX009 (ip), vehicle: Klucel (hydroxypropylcellulose) (HPC)) was 120 % of control and the T/C (dose: 100.0 mg/kg/injection, schedule: Q01DX010 (ip), vehicle: saline) was 100 % of control. For the same molecule, the T/C (dose: 200.0 mg/kg/injection, schedule: Q01DX009 (ip), vehicle: Klucel (hydroxypropylcellulose) (HPC)) was 120 % of control, the T/C (dose: 200.0 mg/kg/injection, schedule: Q01DX010 (ip), vehicle: saline) was 100 % of control and the T/C (dose: 400.0 mg/kg/injection, schedule: Q01DX009 (ip), vehicle: Klucel (hydroxypropylcellulose) (HPC)) was 115 % of control. For the same molecule, the T/C (dose: 400.0 mg/kg/injection, schedule: Q01DX010 (ip), vehicle: saline) was 100 % of control.

In the case of N#Cc1c[nH]n2c(=S)ncnc12, the T/C [1] is reported as 107 % of control, the T/C [2] is reported as 90 % of control and the T/C [3] is reported as 104 % of control. For the same molecule, the T/C [4] was 93 % of control, the T/C [5] was 109 % of control and the T/C (dose: 300.0 mg/kg/injection, schedule: Q01DX009 (ip), vehicle: saline with Tween-80) was 99 % of control.

In the case of C=CCOCCO, the T/C (dose: 100.0 mg/kg/injection, schedule: Q01DX009 (ip), vehicle: saline) is reported as 112 % of control, the T/C (dose: 100.0 mg/kg/injection, schedule: Q04DX003 (ip), vehicle: saline) is reported as 91 % of control and the T/C (dose: 200.0 mg/kg/injection, schedule: Q01DX009 (ip), vehicle: saline) is reported as 112 % of control. For the same molecule, the T/C (dose: 200.0 mg/kg/injection, schedule: Q04DX003 (ip), vehicle: saline) was 95 % of control, the T/C (dose: 400.0 mg/kg/injection, schedule: Q01DX009 (ip), vehicle: saline) was 100 % of control and the T/C (dose: 400.0 mg/kg/injection, schedule: Q04DX003 (ip), vehicle: saline) was 108 % of control.

In the case of N=C(N)c1nn(C2OC(CO)C(O)C2O)c2ncnc(N)c12 (stereo not drawn), the T/C [6] is reported as 114 % of control and 117 % of control, the T/C (dose: 10.0 mg/kg/injection, schedule: Q04DX003 (ip), vehicle: saline) is reported as 109 % of control and 118 % of control and the T/C (dose: 20.0 mg/kg/injection, schedule: Q01DX009 (ip), vehicle: saline) is reported as 117 % of control and 124 % of control. The T/C (dose: 20.0 mg/kg/injection, schedule: Q04DX003 (ip), vehicle: saline) was 122 % of control, the T/C (dose: 40.0 mg/kg/injection, schedule: Q04DX003 (ip), vehicle: saline) was 104 % of control and the T/C (dose: 80.0 mg/kg/injection, schedule: Q04DX003 (ip), vehicle: saline) was 95 % of control.

With Cn1c(CCCC(=O)O)nc2cc(N(CCCl)CCCl)ccc21 the T/C (dose: 1.8 mg/kg/injection, schedule: Q04DX003 (ip), vehicle: saline) was 116 % of control, the T/C (dose: 2.5 mg/kg/injection, schedule: Q01DX009 (ip), vehicle: saline) was 154 % of control and the T/C (dose: 4.3 mg/kg/injection, schedule: Q04DX003 (ip), vehicle: saline with Tween-80) was 175 % of control. For the same molecule, the T/C (dose: 5.0 mg/kg/injection, schedule: Q01DX009 (ip), vehicle: saline) was 166 % of control, the T/C (dose: 6.5 mg/kg/injection, schedule: Q04DX003 (ip), vehicle: saline with Tween-80) was 185 % of control and the T/C (dose: 9.9 mg/kg/injection, schedule: Q04DX003 (ip), vehicle: saline with Tween-80) was 180 % of control. For the same molecule, the T/C [6] was 200 % of control, the T/C (dose: 15.0 mg/kg/injection, schedule: Q04DX003 (ip), vehicle: saline with Tween-80) was 200 % of control and the T/C (dose: 22.5 mg/kg/injection, schedule: Q04DX003 (ip), vehicle: saline with Tween-80) was 180 % of control.

For CC(=O)O[C@@H]1[C@H]2O[C@H]2[C@H]2O[C@@]2(COC(=O)c2ccccc2)[C@H]1OC(C)=O, the T/C (dose: 100.0 mg/kg/injection, schedule: Q01DX010 (ip), vehicle: steriod suspending solution) was 90 % of control, the T/C (dose: 200.0 mg/kg/injection, schedule: Q01DX010 (ip), vehicle: steriod suspending solution) was 90 % of control and the T/C (dose: 400.0 mg/kg/injection, schedule: Q01DX010 (ip), vehicle: steriod suspending solution) was 86 % of control.

O=C(Nc1ncccn1)C12CC3CC(CC(C3)C1)C2 was tested, and the T/C [1] was 88 % of control, the T/C [2] was 96 % of control and the T/C [4] was 93 % of control.

With CC1(C)N=C(c2ccc3ccccc3c2)CC1C#N (stereo not drawn) the T/C (dose: 100.0 mg/kg/injection, schedule: Q01DX001 (ip), vehicle: saline with Tween-80) was 100 % of control, the T/C (dose: 200.0 mg/kg/injection, schedule: Q01DX001 (ip), vehicle: saline with Tween-80) was 100 % of control and the T/C (dose: 400.0 mg/kg/injection, schedule: Q01DX001 (ip), vehicle: saline with Tween-80) was 95 % of control.

With CCCCCCCC(=O)Nc1c(C)cccc1C the T/C [3] was 100 % of control, the T/C [5] was 100 % of control and the T/C (dose: 400.0 mg/kg/injection, schedule: Q04DX003 (ip), vehicle: saline with Tween-80) was 95 % of control.
